The values below come from ChEMBL document CHEMBL1158518, “Synthesis and evaluation of two series of 4'-aza-carbocyclic nucleosides as adenosine A2A receptor agonists” (Bioorg Med Chem Lett, 2010).

In test [1] the test system is PBMC. The experiment in a line: Antiinflammatory activity in human PBMC assessed as inhibition of LPS-induced TNFalpha production after 20 hrs by ELISA. In kind it is functional, cell-based. A general note: An ELISA detects its analyte on a solid surface through an enzyme-linked reagent.
Test [2] deals with PBMC. The experiment in a line: Antiinflammatory activity in rat PBMC assessed as inhibition of LPS-induced TNFalpha production after 20 hrs by ELISA.
Another test addresses T1, Adenosine receptor A3 (Homo sapiens, UniProt P0DMS8).
T1 sequence (P0DMS8 whole entry): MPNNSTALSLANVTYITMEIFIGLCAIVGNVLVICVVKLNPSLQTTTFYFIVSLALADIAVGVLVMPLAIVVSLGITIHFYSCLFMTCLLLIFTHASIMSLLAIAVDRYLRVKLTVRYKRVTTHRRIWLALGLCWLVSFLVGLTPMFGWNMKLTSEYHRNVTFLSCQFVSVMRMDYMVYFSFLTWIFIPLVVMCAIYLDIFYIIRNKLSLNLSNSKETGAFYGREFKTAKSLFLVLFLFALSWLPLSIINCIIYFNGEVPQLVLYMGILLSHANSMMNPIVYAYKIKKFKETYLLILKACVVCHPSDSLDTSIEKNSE
The experiment in a line: Agonist activity at human adenosine A3 receptor expressed in CHO cells by GTPPgammaS binding assay. It is filed as cell-based. A general note: Binding of GTPγS marks nucleotide exchange on a G protein.

Test [3] has as its target T2, Adenosine receptor A2a (Homo sapiens, UniProt P29274).
Description: Agonist activity at adenosine A2A receptor in human neutrophils assessed as inhibition of fMLP-induced reactive oxygen species release by chemiluminescence assay
Test [4] has as its target T2, Adenosine receptor A2a. The experiment in a line: biochemical.
The next test deals with T3, Adenosine receptor A1 (Homo sapiens, UniProt P30542).
T3 sequence (P30542 whole entry): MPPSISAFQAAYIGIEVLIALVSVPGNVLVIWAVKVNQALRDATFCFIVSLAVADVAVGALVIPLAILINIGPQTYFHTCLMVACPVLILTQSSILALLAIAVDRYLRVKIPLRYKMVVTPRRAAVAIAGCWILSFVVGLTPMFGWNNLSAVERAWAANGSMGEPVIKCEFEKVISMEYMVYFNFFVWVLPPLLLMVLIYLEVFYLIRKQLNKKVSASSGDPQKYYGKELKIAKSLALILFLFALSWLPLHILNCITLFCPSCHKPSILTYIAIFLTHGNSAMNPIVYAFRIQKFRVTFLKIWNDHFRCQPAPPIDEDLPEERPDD
Briefly: Agonist activity at human adenosine A1 receptor expressed in CHO cells by GTPPgammaS binding assay. In kind it is cell-based.

The next test addresses T4, Adenosine receptor A2b (Homo sapiens, UniProt P29275).
T4 sequence (P29275 whole entry): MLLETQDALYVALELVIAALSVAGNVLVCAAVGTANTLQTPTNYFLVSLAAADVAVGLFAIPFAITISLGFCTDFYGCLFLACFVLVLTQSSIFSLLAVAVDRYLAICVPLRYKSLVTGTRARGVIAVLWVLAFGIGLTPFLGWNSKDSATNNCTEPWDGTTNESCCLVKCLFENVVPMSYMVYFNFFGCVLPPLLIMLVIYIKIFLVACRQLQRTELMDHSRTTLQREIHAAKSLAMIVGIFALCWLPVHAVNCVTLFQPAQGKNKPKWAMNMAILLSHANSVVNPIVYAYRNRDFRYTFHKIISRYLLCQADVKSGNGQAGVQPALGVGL

Test [5] concerns the target T5, Adenosine receptor A3 (Homo sapiens) (UniProt P0DMS8).
T5 sequence (whole entry): T1 sequence (P0DMS8 whole entry)
Briefly: Antagonist activity at human adenosine A3 receptor expressed in CHO cells assessed as I-AB-MECA-induced GTPPgammaS binding response. It is filed as functional, cell-based. Set-up: concentration or dose not given beside the values.

Test [6] has as its target T5, Adenosine receptor A3 (Homo sapiens). The experiment in a line: Partial agonist activity at human adenosine A3 receptor expressed in CHO cells assessed as I-AB-MECA-induced GTPPgammaS binding response. It is filed as cell-based.

T2 sequence (P29274 whole entry): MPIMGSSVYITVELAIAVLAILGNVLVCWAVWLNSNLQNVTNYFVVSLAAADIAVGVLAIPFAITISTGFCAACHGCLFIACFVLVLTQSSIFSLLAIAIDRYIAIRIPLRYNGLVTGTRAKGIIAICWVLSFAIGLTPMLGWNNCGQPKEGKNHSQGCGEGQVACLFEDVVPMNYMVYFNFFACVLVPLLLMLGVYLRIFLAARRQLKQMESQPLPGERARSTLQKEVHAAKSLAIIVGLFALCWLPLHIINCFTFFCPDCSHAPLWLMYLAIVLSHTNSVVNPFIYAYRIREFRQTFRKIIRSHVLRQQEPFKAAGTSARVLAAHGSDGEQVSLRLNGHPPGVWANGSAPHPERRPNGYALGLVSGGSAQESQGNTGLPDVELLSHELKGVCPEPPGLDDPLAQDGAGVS
Description for Adenosine receptor A2b: Agonist activity at human adenosine A2B receptor expressed in CHO cells assessed as effect on cAMP production by luciferase reporter gene assay

As a reminder, the IC50 is the midpoint of a concentration-inhibition curve. For `CCNC(=O)[C@H]1O[C@@H](n2cnc3c(N)ncnc32)[C@H](O)[C@@H]1O` [NECA], the IC50 in the test on PBMC [1] was 0.04 µM; in the test on PBMC [2] it was 0.187 µM.

One may read the EC50 as the midpoint of the concentration-response curve. What is called Ki is a dissociation constant, usually derived from enzyme kinetics or from competition with a known ligand. Compound `CCC(=O)N[C@H]1C[C@@H](n2cnc3c(NCC(c4ccccc4)c4ccccc4)nc(NCCc4cn(CC)cn4)nc32)[C@H](O)[C@@H]1O` came in with an EC50 at Adenosine receptor A3 of 0.044 µM. The IC50 at Adenosine receptor A2a [3] was found to be 0.005 µM. Also, at Adenosine receptor A2a [4], the affinity, expressed as Ki, was 0.0052 µM.

As for `CCC(=O)N[C@H]1C[C@@H](n2cnc3c(NC(CC)CC)nc(NCCc4cn(CC)cn4)nc32)[C@H](O)[C@@H]1O`, the values for the EC50 at Adenosine receptor A1, on Adenosine receptor A3 and on Adenosine receptor A2b were > 10 µM, 1.64 µM and > 10 µM, respectively. Besides, the IC50 amounted to 0.0047 µM in the test on PBMC [1], 0.0027 µM at Adenosine receptor A2a [3] and 0.255 µM in the test on PBMC [2]. This compound came in with an inhibition constant (Ki) on Adenosine receptor A2a [4] of 0.0054 µM.

Consider `CCc1cnn([C@H]2C[C@@H](n3cnc4c(NCC(c5ccccc5)c5ccccc5)nc(NCCc5cn(CC)cn5)nc43)[C@H](O)[C@@H]2O)c1`, for which affinity on Adenosine receptor A2a [4] was put at a Ki of 0.146 µM.

On Adenosine receptor A1, `CCn1nnc([C@H]2O[C@@H](n3cnc4c(N)nc(N[C@H](CO)Cc5ccccc5)nc43)[C@H](O)[C@@H]2O)n1` [GW-328267] came in with an EC50 of 0.882 µM. The Activity in test [5] was > 50%. The results for the IC50 in the test with PBMC [1], at Adenosine receptor A2a [3] and in the test on PBMC [2] were 0.0013 µM, 0.0004 µM and 0.0029 µM, respectively.

`Nc1nc(N[C@H](CO)Cc2ccccc2)nc2c1ncn2[C@@H]1C[C@H](n2ncc3ccccc32)[C@@H](O)[C@H]1O` registered a Ki at Adenosine receptor A2a [4] of 5.41 µM.

With `CCCC(=O)N[C@H]1C[C@@H](n2cnc3c(NCC(c4ccccc4)c4ccccc4)nc(NCCc4cn(C(C)C)cn4)nc32)[C@H](O)[C@@H]1O`, on Adenosine receptor A2a [3], the IC50 is 0.16 µM. At Adenosine receptor A2a [4], this compound yielded an inhibitory constant (Ki) of 0.039 µM.

Turning to `CC(C)n1cnc(CCNc2nc(NCC(c3ccccc3)c3ccccc3)c3ncn([C@@H]4C[C@H](NC(=O)C5CC5)[C@@H](O)[C@H]4O)c3n2)c1`, the EC50 at Adenosine receptor A1 is > 10 µM; on Adenosine receptor A3, 0.357 µM. Besides, in [5], the Activity was > 50%. At Adenosine receptor A2a [3], this compound showed an IC50 of 0.06 µM. Further, the Ki at Adenosine receptor A2a [4] stood at 0.016 µM.

For `CC(C)n1cnc(CCNc2nc(NCC(c3ccccc3)c3ccccc3)c3ncn([C@@H]4C[C@H](NC(=O)C(C)(C)C)[C@@H](O)[C@H]4O)c3n2)c1`, on Adenosine receptor A2a [3], the 50% inhibitory concentration (IC50) is 0.542 µM. The compound further displayed a Ki on Adenosine receptor A2a [4] of 0.382 µM.

`CCC(=O)N[C@H]1C[C@@H](n2cnc3c(NCC(c4ccccc4)c4ccccc4)nc(NCCc4cn(CC(=O)O)cn4)nc32)[C@H](O)[C@@H]1O`: the Ki at Adenosine receptor A2a [4] was 0.097 µM.

Regarding `CCC(CC)CNc1nc(NCCc2cn(CC)cn2)nc2c1ncn2[C@@H]1C[C@H](n2cc(CO)cn2)[C@@H](O)[C@H]1O`, the EC50 was 4.1 µM on Adenosine receptor A1, 0.789 µM on Adenosine receptor A3 and > 10 µM on Adenosine receptor A2b. The Activity in test [5] is > 50%. Further, the IC50 in the test on PBMC [1] was found to be 0.021 µM; against Adenosine receptor A2a [3], 0.0053 µM; in the test with PBMC [2], 3.59 µM. The Ki on Adenosine receptor A2a [4] turned out to be 0.0054 µM.

Regarding `CCC(=O)N[C@H]1C[C@@H](n2cnc3c(NCC(c4ccccc4)c4ccccc4)nc(NCCc4cn(C)cn4)nc32)[C@H](O)[C@@H]1O`, the EC50 on Adenosine receptor A1 was > 10 µM; on Adenosine receptor A3, 0.042 µM. The compound also registered an IC50 at Adenosine receptor A2a [3] of 0.0047 µM. The same compound yielded a Ki at Adenosine receptor A2a [4] of 0.0046 µM.

With `CC(C)C(=O)N[C@H]1C[C@@H](n2cnc3c(NCC(c4ccccc4)c4ccccc4)nc(NCCc4cn(C(C)C)cn4)nc32)[C@H](O)[C@@H]1O`, at Adenosine receptor A2a [3], the IC50 was determined as 0.067 µM. Besides, on Adenosine receptor A2a [4], the Ki amounted to 0.027 µM.

As to `Cc1cnn([C@H]2C[C@@H](n3cnc4c(N)nc(N[C@H](CO)Cc5ccccc5)nc43)[C@H](O)[C@@H]2O)c1`, the EC50 on Adenosine receptor A1 is > 10 µM; at Adenosine receptor A3, 0.449 µM; at Adenosine receptor A2b, > 10 µM. Besides, the Activity in test [5] is > 50%. At Adenosine receptor A2a [3], this compound gave an IC50 of 0.056 µM. Also, on Adenosine receptor A2a [4], the Ki was 0.229 µM.

On Adenosine receptor A2a [4], `Nc1nc(N[C@H](CO)Cc2ccccc2)nc2c1ncn2[C@@H]1C[C@H](n2ccccc2=O)[C@@H](O)[C@H]1O` yielded an inhibition constant Ki of 5.49 µM.

As for `CCc1cnn([C@H]2C[C@@H](n3cnc4c(N)nc(N[C@H](CO)Cc5ccccc5)nc43)[C@H](O)[C@@H]2O)c1`, the concentration for a half-maximal effect (EC50) at Adenosine receptor A1 is > 10 µM; at Adenosine receptor A3, 0.776 µM; on Adenosine receptor A2b it was > 10 µM. Besides, the Activity in [5] was > 50%. For the same compound, on Adenosine receptor A2a [3], half-maximal inhibition (IC50) was put at 0.062 µM. On Adenosine receptor A2a [4], this compound gave a Ki of 0.182 µM.

Consider `CCNC(=O)[C@H]1O[C@@H](n2cnc3c(N)nc(NCCc4ccc(CCC(=O)O)cc4)nc32)[C@H](O)[C@@H]1O` [CGS-21680], for which the IC50 stood at 0.058 µM with PBMC [1] and 0.083 µM with PBMC [2].

As for `Nc1nc(N[C@H](CO)Cc2ccccc2)nc2c1ncn2[C@@H]1C[C@H](n2cc(-c3ccccc3)cn2)[C@@H](O)[C@H]1O`, the Ki on Adenosine receptor A2a [4] is > 10 µM.

As for `CCC(=O)N[C@H]1C[C@@H](n2cnc3c(NCC(c4ccccc4)c4ccccc4)nc(NCCc4c[nH]cn4)nc32)[C@H](O)[C@@H]1O`, the EC50 is > 10 µM on Adenosine receptor A1, 0.139 µM on Adenosine receptor A3 and > 10 µM on Adenosine receptor A2b. Besides, the IC50 against Adenosine receptor A2a [3] amounted to 0.0059 µM. Moreover, on Adenosine receptor A2a [4], the affinity corresponds to a Ki of 0.0052 µM.

With `CCCCC#Cc1nc(N)c2ncn([C@@H]3C[C@H](NC(=O)CC)[C@@H](O)[C@H]3O)c2n1`, the EC50 was > 10 µM on Adenosine receptor A1, 0.105 µM on Adenosine receptor A3 and > 10 µM on Adenosine receptor A2b. In addition, the half-maximal inhibitory concentration (IC50) against Adenosine receptor A2a [3] was 0.012 µM. The Ki on Adenosine receptor A2a [4] turned out to be 0.018 µM.

On to `CC(C)n1cnc(CCNc2nc(NCC(c3ccccc3)c3ccccc3)c3ncn([C@@H]4C[C@H](NC(=O)C5CCC5)[C@@H](O)[C@H]4O)c3n2)c1`, for which the results for the EC50 on Adenosine receptor A1 and on Adenosine receptor A3 were > 10 µM and 0.48 µM, respectively. The Activity in test [6] worked out at 48%. It took 0.04 µM to reach half-maximal inhibition against Adenosine receptor A2a [3] (IC50). Besides, the Ki at Adenosine receptor A2a [4] stood at 0.0079 µM.

Turning to `CC(C)n1cnc(CCNc2nc(NCC(c3ccccc3)c3ccccc3)c3ncn([C@@H]4C[C@H](NC(=O)CCc5ccccc5)[C@@H](O)[C@H]4O)c3n2)c1`, the Ki at Adenosine receptor A2a [4] was found to be 5.47 µM.

For the compound `CCC(=O)N[C@H]1C[C@@H](n2cnc3c(NC(CC)CC)nc(NCCc4cn(C(C)C)cn4)nc32)[C@H](O)[C@@H]1O`, the values for the EC50 on Adenosine receptor A1 and at Adenosine receptor A3 were > 10 µM and 2.52 µM, respectively. The IC50 turned out to be 0.0059 µM in the test on PBMC [1], 0.0083 µM on Adenosine receptor A2a [3] and 0.458 µM with PBMC [2]. The compound also had a Ki on Adenosine receptor A2a [4] of 0.008 µM.

At Adenosine receptor A2a [4], `Nc1nc(N[C@H](CO)Cc2ccccc2)nc2c1ncn2[C@@H]1C[C@H](n2cccn2)[C@@H](O)[C@H]1O` registered a Ki of 0.702 µM.

With `CC(C)n1cnc(CCNc2nc(NCC(c3ccccc3)c3ccccc3)c3ncn([C@@H]4C[C@H](NC(=O)Cc5ccccc5)[C@@H](O)[C@H]4O)c3n2)c1`, on Adenosine receptor A2a [4], the Ki stood at 1.67 µM.
